Reference: patent publication US12188932B2, “Method for high throughput peptide-MHC affinity screening for TCR ligands” (priority 2018, dated 2025)

System: GloResponse NFAT-luc2 Jurkat cells
Settings: T2 loaded with 100 nM peptide, 18 hours
Description: T cell activation assays using GloResponse™ NFAT-luc2 Jurkat cells and peptide loaded T2 target cells were performed according to manufacturer instructions. In short, T2 cells were harvested from continuous cell culture, washed and resuspended in T2 culture medium at a concentration of 3.3×10^6 cells/ml and transferred to 96 well round bottom plates (Corning Costar®, Cat. Nr. 3799). Peptide in DMSO, 0.5% TFA was added to a final concentration of 100 nM and the suspension incubated for 2 to 3 hours at 37° C., 5% CO2. bsTCR formulated in PBS was diluted in T2 culture medium to desired concentration and 25 μl of the respective dilution was distributed to white 96 well flat bottom plates (Brand, Cat. Nr. 781965). […] After the incubation period 75 μl of Bio-Glo™ luciferase reagent was added to each well and the plates incubated for minutes at 300 rpm on a plate shaker in the dark before reading luminescence at a 0.5 second integration time with a Synergy2 plate reader (Biotek). Luminescence as measured in relative light units (RLU) was converted to fold induction for each well by dividing measured RLU through those of control wells.
T2 cells were loaded separately with respective peptides from the positional scanning library at a concentration of 100 nM and subsequently co-incubated with Jurkats and different bsTCR concentrations for 18 hours before readout.

Sequence: ALYNVLAKV
- T cell activation (luminescence fold induction over background): reactive in the reporter assay
